The results in this text go back to patent US7462600B2, “Macrolides” (Pfizer Inc, priority 2004, dated 2008).

In brackets after ≈: the same amount, converted by molar mass. Where two headings read alike, the source gives them in different places.

Common to all, as to format: cell-based
Experiment [1] has as its system Haemophilus influenzae 1218. The experiment is described as follows: MIC, microtiter broth dilution (NCCLS M100-S14), H. influenzae 1218 (susceptible). How it is done:
(§1) The assay described herein includes a panel of bacterial strains assembled to include a variety of target pathogenic species, including representatives of macrolide resistance mechanisms that have been characterized. In many cases, both the macrolide-susceptible parent strain and the macrolide-resistant strain derived from it are available to provide a more accurate assessment of the compound's ability to circumvent the resistance mechanism. The assay is performed in microtiter trays and interpreted according to Performance Standards for Antimicrobial Susceptibility Testing; 14th Informational Supplement (M100-S14), published by The National Committee for Clinical Laboratory Standards (NCCLS) guidelines; the MIC is used to compare strains. Compounds are initially dissolved in DMSO as 40 mg/ml stock solutions.
On the technique in general: In broth dilution the organism is exposed to a series of concentrations in liquid medium.

Experiment [2] relates to Streptococcus pneumoniae 1016. The experiment is described as follows: MIC, microtiter broth dilution (NCCLS M100-S14), S. pneumoniae 1016 (susceptible). As for the experimental part: as §1
The subject of experiment [3] is Streptococcus pyogenes 1079. The experiment is described as follows: MIC, microtiter broth dilution (NCCLS M100-S14), S. pyogenes 1079 (ermB). How it is done:
as §1

The test system of experiment [4] is Streptococcus pneumoniae 1095. The conditions noted are these: microtiter broth dilution. How it is done: as §1
Experiment [5] relates to Streptococcus pneumoniae 1175. Particulars: microtiter broth dilution. How it is done: as §1
The mark [6] stands for this setting: H. influenzae 1218 (susceptible).
[7] abbreviates: S. pneumoniae 1016 (susceptible).

As to `CCC1OC(=O)C(C)C(=O)C(C)C(OC2OC(C)CC(N(C)C)C2O)C(C)(OC)CC(C)C(=O)C(C)C2N(C3CN(Cc4cnc5ncccc5c4)C3)C(=O)OC12C` (stereo not shown) [Example 1.17, (1,8-naphthyridin-3-yl)methyl], the “MIC H. influenzae 1218” value in experiment [1] (Haemophilus influenzae 1218) amounted to 0.12 µg/mL (≈ 0.148 µM). In addition, the “MIC S. pneumo. 1016” value in experiment [2] (Streptococcus pneumoniae 1016) is below 0.06 µg/mL. In experiment [3] (Streptococcus pyogenes 1079), the “MIC S. pyogenes 1079” value is above 64.00 µg/mL. Also, the “MIC S. pneumo. 1095” value in experiment [4] (Streptococcus pneumoniae 1095) is below 0.06 µg/mL. The “MIC S. pneumo. 1175” value in experiment [5] (Streptococcus pneumoniae 1175) amounted to 0.25 µg/mL (≈ 0.309 µM).
For `CC[C@H]1OC(=O)[C@H](C)C(=O)[C@H](C)[C@@H](O[C@@H]2O[C@H](C)C[C@H](N(C)C)[C@H]2O)[C@](C)(OC)C[C@@H](C)C(=O)[C@H](C)[C@H]2N(CC3(C)CN(Cc4cnc5ccccc5n4)C3)C(=O)O[C@]12C` [6.07], the “MIC H. influenzae 1218” value in experiment [1] (Haemophilus influenzae 1218) stood at 4 µg/mL (≈ 4.77 µM). Further, in experiment [2] (Streptococcus pneumoniae 1016), the “MIC S. pneumo. 1016” value was below 0.06 µg/mL. The “MIC S. pyogenes 1079” value in experiment [3] (Streptococcus pyogenes 1079) was above 64.00 µg/mL. Besides, the “MIC S. pneumo. 1095” value in experiment [4] (Streptococcus pneumoniae 1095) turned out to be 1 µg/mL (≈ 1.19 µM). Further, in experiment [5] (Streptococcus pneumoniae 1175), the “MIC S. pneumo. 1175” value came out at 0.5 µg/mL (≈ 0.597 µM).
Regarding `CC[C@H]1OC(=O)[C@H](C)C(=O)[C@H](C)[C@@H](O[C@@H]2O[C@H](C)C[C@H](N(C)C)[C@H]2O)[C@](C)(OC)C[C@@H](C)C(=O)[C@H](C)[C@H]2N(C[C@H]3CCCN3C(=O)c3cccc4ncsc34)C(=O)O[C@]12C.O=CO` [10.22], in experiment [1] (setting [6]), the “MIC H. influenzae 1218” value was 2.5 µg/mL. Further, in experiment [2] (setting [7]), the “MIC S. pneumo. 1016” value is below 0.06 µg/mL. For the same compound, the “MIC S. pyogenes 1079” value in experiment [3] (S. pyogenes 1079 (ermB)) was determined as 64 µg/mL. For the same compound, the “MIC S. pneumo. 1095” value in experiment [4] (S. pneumoniae 1095 (ermB)) came to 0.12 µg/mL. The “MIC S. pneumo. 1175” value in experiment [5] (S. pneumoniae 1175 (mefA)) came out at 2 µg/mL.
Turning to `CCC1OC(=O)C(C)C(=O)C(C)C(OC2OC(C)CC(N(C)C)C2O)C(C)(OC)CC(C)C(=O)C(C)C2N(C3CN(S(=O)(=O)c4cccc(-c5cc[nH]n5)c4)C3)C(=O)OC12C` (stereo not shown) [Example 3.36, 3-descladinosyl-11,12-dideoxy-6-O-methyl-3-oxo-12,11-(oxycarbonyl-(1-(3-(1H-pyrazol-3-yl)benzenesulfonyl)-azetidin-3-yl)-imino)-erythromycin A], in experiment [1] (Haemophilus influenzae 1218), the “MIC H. influenzae 1218” value came out at 0.25 µg/mL (≈ 0.286 µM). Moreover, the “MIC S. pneumo. 1016” value in experiment [2] (Streptococcus pneumoniae 1016) is below 0.06 µg/mL. Further, in experiment [3] (Streptococcus pyogenes 1079), the “MIC S. pyogenes 1079” value came to 1 µg/mL (≈ 1.14 µM). The “MIC S. pneumo. 1095” value in experiment [4] (Streptococcus pneumoniae 1095) is below 0.06 µg/mL. For the same compound, the “MIC S. pneumo. 1175” value in experiment [5] (Streptococcus pneumoniae 1175) is below 0.06 µg/mL.
Take `CCC1OC(=O)C(C)C(=O)C(C)C(OC2OC(C)CC(N(C)C)C2O)C(C)(OC)CC(C)C(=O)C(C)C2N(C3CN(S(=O)(=O)c4ccc(Oc5ccccn5)cc4)C3)C(=O)OC12C` (stereo not shown) [Example 3.34, 4-(pyridin-2-yloxy)benzenesulfonyl]: the “MIC H. influenzae 1218” value in experiment [1] (Haemophilus influenzae 1218) worked out at 16 µg/mL (≈ 17.8 µM). Also, the “MIC S. pneumo. 1016” value in experiment [2] (Streptococcus pneumoniae 1016) is below 0.06 µg/mL. Further, the “MIC S. pyogenes 1079” value in experiment [3] (Streptococcus pyogenes 1079) is 64 µg/mL (≈ 71 µM). Further, in experiment [4] (Streptococcus pneumoniae 1095), the “MIC S. pneumo. 1095” value was 1 µg/mL (≈ 1.11 µM). Besides, in experiment [5] (Streptococcus pneumoniae 1175), the “MIC S. pneumo. 1175” value was determined as 0.12 µg/mL (≈ 0.133 µM).
As for `CCC1OC(=O)C(C)C(=O)C(C)C(OC2OC(C)CC(N(C)C)C2O)C(C)(OC)CC(C)C(=O)C(C)C2N(CC3CCN(Cc4ccc5cccc(O)c5n4)C3)C(=O)OC12C` (stereo not shown) [13.04], the “MIC H. influenzae 1218” value in experiment [1] (setting [6]) is 1 µg/mL (≈ 1.17 µM). The “MIC S. pneumo. 1016” value in experiment [2] (setting [7]) is below 0.06 µg/mL. Besides, the “MIC S. pyogenes 1079” value in experiment [3] (S. pyogenes 1079 (ermB)) turned out to be 64 µg/mL (≈ 75 µM). Also, in experiment [4] (S. pneumoniae 1095 (ermB)), the “MIC S. pneumo. 1095” value turned out to be 1 µg/mL (≈ 1.17 µM). The “MIC S. pneumo. 1175” value in experiment [5] (S. pneumoniae 1175 (mefA)) is 0.25 µg/mL (≈ 0.293 µM).
As to `CCC1OC(=O)C(C)C(=O)C(C)C(OC2OC(C)CC(N(C)C)C2O)C(C)(OC)CC(C)C(=O)C(C)C2N(CC3C4CN(Cc5cccnc5)CC43)C(=O)OC12C` (stereo not shown) [16.04], in experiment [1] (setting [6]), the “MIC H. influenzae 1218” value amounted to 0.5 µg/mL (≈ 0.626 µM). In addition, in experiment [2] (setting [7]), the “MIC S. pneumo. 1016” value is 0.03 µg/mL (≈ 0.0375 µM). In addition, the “MIC S. pyogenes 1079” value in experiment [3] (S. pyogenes 1079 (ermB)) was above 100.00 µg/mL. Besides, the “MIC S. pneumo. 1095” value in experiment [4] (S. pneumoniae 1095 (ermB)) amounted to 3.12 µg/mL (≈ 3.9 µM). Further, the “MIC S. pneumo. 1175” value in experiment [5] (S. pneumoniae 1175 (mefA)) was above 100.00 µg/mL.
For the compound `CCC1OC(=O)C(C)C(=O)C(C)C(OC2OC(C)CC(N(C)C)C2O)C(C)(OC)CC(C)C(=O)C(C)C2N(CC3CCN(Cc4nccc5ccccc45)C3)C(=O)OC12C` (stereo not shown) [11.10], the “MIC H. influenzae 1218” value in experiment [1] (setting [6]) was determined as 0.12 µg/mL (≈ 0.143 µM). The “MIC S. pneumo. 1016” value in experiment [2] (setting [7]) is below 0.06 µg/mL. The “MIC S. pyogenes 1079” value in experiment [3] (S. pyogenes 1079 (ermB)) came to 64 µg/mL (≈ 76.5 µM). Also, the “MIC S. pneumo. 1095” value in experiment [4] (S. pneumoniae 1095 (ermB)) is below 0.06 µg/mL. Moreover, the “MIC S. pneumo. 1175” value in experiment [5] (S. pneumoniae 1175 (mefA)) is below 0.06 µg/mL.
